PubChem BioAssay (NCI)
Values after ≈ are worked out from the molar mass of the structure shown.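 Assay format: 96-well plates, 48-hour exposure. Here, GI50 denotes the concentration required for 50% inhibition of growth. At the TGI there is no net growth.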

Legend:
Test in all cases: NCI-60 cell line screen, 48 h
[1] = system: CCRF-CEM leukemia
[2] = system: SF-268 CNS
[3] = system: HL-60(TB) leukemia
[4] = system: EKVX NSCLC
[5] = system: M14 melanoma
[6] = system: K-562 leukemia
[7] = system: HT29 colon
[8] = system: U251 CNS
[9] = system: LOX IMVI melanoma
[10] = system: HOP-62 NSCLC

| SMILES | TGI [1] | TGI [2] | TGI [3] | TGI [4] | TGI [5] | TGI [6] | TGI [7] | TGI [8] | TGI [9] | GI50 [1] | GI50 [2] | GI50 [3] | GI50 [4] | GI50 [5] [µg/mL] | GI50 [6] | GI50 [10] | TGI [10] | GI50 [7] | GI50 [8] | GI50 [9] |
| --- | --- | --- | --- | --- | --- | --- | --- | --- | --- | --- | --- | --- | --- | --- | --- | --- | --- | --- | --- | --- |
| O=C1CCCCC2N(C(c3ccccc3)c3ccccc3)CC[C@@]12c1ccccc1 (mixture of isomers) | > 10 µM | > 10 µM | 9.4 µM | > 10 µM | > 10 µM | > 10 µM | > 10 µM | > 10 µM | > 10 µM |  |  |  |  |  |  |  |  |  |  |  |
| O=C1NN(C2=NNC3(C(=O)N2)c2ccccc2-c2ccccc23)C(c2ccccc2)=N/C1=C/c1ccc(O)cc1 | > 150 µg/mL | > 150 µg/mL | > 150 µg/mL | > 150 µg/mL | > 150 µg/mL | > 150 µg/mL | > 150 µg/mL | > 150 µg/mL | 71.3 µg/mL | 46.4 µg/mL | 49.9 µg/mL | 51.7 µg/mL | 47.4 µg/mL | 57.6 (≈ 109 µM) | 35.8 µg/mL | 39.9 µg/mL | 138 µg/mL | > 150 µg/mL | 104 µg/mL | 32.2 µg/mL |
| Clc1ccccc1/C=C/c1cscn1 | > 100 µM | > 100 µM | > 100 µM | > 100 µM | > 100 µM | > 100 µM | > 100 µM | > 100 µM | > 100 µM |  |  |  |  |  |  |  | > 100 µM |  |  |  |
| Cc1nc2ccccc2n1C(=O)c1c(F)c(F)c(F)c(F)c1F | > 100 µM | > 100 µM | > 100 µM | > 100 µM | 25.9 µM | > 100 µM | 27.5 µM | 52.6 µM | 25.1 µM |  |  |  |  |  |  |  | 68.3 µM |  |  |  |
| N#Cc1c(Cl)c2cc([N+](=O)[O-])ccc2n2c1nc1ccccc12 | 4.27 µM | 13.6 µM | 0.58 µM | 34.2 µM | 4.41 µM | > 36.7 µM | 18.4 µM | > 100 µM | 3.05 µM |  |  |  |  |  |  |  | 47.4 µM |  |  |  |
| C=CC1(C)CCC2=C(CCC3C(C)(C(=O)OC)CCCC23C)C1=O (configuration not stated) | 68 µM | 34.9 µM | 55.2 µM | 32.8 µM | 38.7 µM | > 100 µM | 31.2 µM | 29 µM | 34.3 µM |  |  |  |  |  |  |  | 31.3 µM |  |  |  |
| Cc1cc(O)c(C(C)(C)C)cc1Sc1cc(C(C)(C)C)c(O)cc1C | 14.5 µM | 12.9 µM | 6.35 µM | 11.6 µM |  | 5.4 µM | 4.47 µM | 4.22 µM | 3.64 µM | 2.95 µM | 3.3 µM | 2.6 µM | 2.93 µM |  | 1.95 µM | 2.11 µM | 4.74 µM | 2.34 µM | 1.99 µM | 1.97 µM |
